In patent publication US11319347B2, “Peptide compound and method for producing same, composition for screening use, and method for selecting peptide compound” (FUJIFILM Corporation, priority 2017, dated 2022):
Starred links: 1 amine or outer side, 2 acyl side, 3 side chain; linkers in the order of their positions; H or OH if unused. Positions of bridges follow the written chain, without caps; N, C: chain ends. Non-standard residues stand in square brackets, D forms with d. Residues, ends and D or L forms follow the SMILES beside them. ξ: configuration not given here. Phe(3-(4R-CO-2-thiazolinyl)) = O=C([C@H](Cc1cccc(C2=N[C@H](C(=O)[*:3])CS2)c1)N[*:1])[*:2]; dCha = N[C@H](CC1CCCCC1)C(=O)O; Nle = CCCC[C@H](N)C(=O)O; ξL = CC(C)CC(N)C(=O)O

Experiment: Membrane permeability of synthesized cyclic peptides by PAMPA (Measurement Method A: 1 μmol/L; Method B: 10 μmol/L)
Type: in vitro ADME
Conditions: Measurement method A, 25° C., 4 hours
Description: Evaluation of membrane permeability of synthesized cyclic peptide by PAMPA method In order to compare and examine the membrane permeability of the synthesized cyclic peptide, parallel artificial membrane permeability assay (PAMPA) was carried out.
An artificial phospholipid membrane was produced by adding 5 μL of a phospholipid organic solvent solution consisting of L-α-phosphatidylcholine (Avanti Polar Lipids, Inc., Cat. 840051P, 1.67%), 1,2-dioleoyl-sn-glycero-3-phospho-L-serine (Avanti Polar Lipids, Inc., Cat. 840035P, 0.33%), and n-dodecane special grade (Wako Pure Chemical Industries, Ltd., 047-21612)/1-octanol reagent special grade (Kanto Chemical Co., Inc., Cat. 31013-08)=10:1 to Filter Plate (Merck Millipore Corporation, Cat. MAIPN4550).
475 μL of 50 mmol/L potassium phosphate buffer (KPB, pH 7.4 or pH 6.5) was added to 25 μL of a DMSO solution containing the compound at a concentration of 20 μmol/L, so that the compound was diluted to a final concentration of 1 μmol/L. 300 μL of the compound solution was added to the lower side (donor side) of PAMPA 96-well plate (Filter Plate (Merck Millipore Corporation, Cat. MAIPN4550)) with an artificial phospholipid membrane being interposed therebetween. 200 μL of 5% DMSO KPB (pH 7.4) was added to the upper side (acceptor side) with the artificial phospholipid membrane being interposed therebetween. A permeation test through an artificial phospholipid membrane was carried out at 25° C. for 4 hours. The compound concentration in the solution in the donor plate and the acceptor plate was measured by LC/MS/MS, and the membrane permeation rate (Pe) of the compound was calculated from the following formula, assuming that C0 is an initial compound concentration in donor solution, t is a test time, A is a membrane filter area=0.3 cm^2, VD is a donor solution amount=300 μL, VA is an acceptor solution amount=200 μL, and CD(t) is a compound concentration in donor solution at time t, CA(t) is a compound concentration in acceptor solution at time t, and Cequilibrium=[CD(t)*VD+CA(t)*VA]/(VD+VA).
475 μL of 50 mmol/L potassium phosphate buffer (KPB, pH 7.4 or pH 6.5) was added to 25 μL of a DMSO solution containing the compound at a concentration of […], so that the compound was diluted to a final concentration of 10 μmol/L. The compound solution was added 300 μL each to the lower side (donor side) of an artificial phospholipid membrane of PAMPA 96-well plate (Filter Plate (Merck Millipore Corporation, Cat. MAIPN4550)). 200 μL of 5% DMSO KPB (pH 7.4) was added to the upper side (acceptor side) with the artificial phospholipid membrane being interposed therebetween. A permeation test through an artificial phospholipid membrane was carried out at 25° C. for 4 hours. The compound concentration in the solution in the donor plate and the acceptor plate was measured by LC/MS/MS, and the membrane permeation rate (Pe) of the compound was calculated from the following formula, assuming that Co is an initial compound concentration in donor solution, t is a test time, A is a membrane filter area=0.3 cm^2, VD is a donor solution amount=300 μL, VA is an acceptor solution amount=200 μL, and CD(t) is a compound concentration in donor solution at time t, CA(t) is a compound concentration in acceptor solution at time t, and Cequilibrium=[CD(t)*VD+CA(t)*VA]/(VD+VA).
The membrane permeability (Pe(10^−6 cm/s)) obtained by this method is described in the following table.
Evaluation standards are as follows.

Row | Structure (SMILES) | Pe(10^−6 cm/sec)
1 | CC(C)C[C@@H]1NC(=O)[C@@H]2CSC(=N2)c2cccc(c2)C[C@@H](C(=O)N[C@@H](C)C(=O)N[C@@H](CC(C)C)C(=O)N[C@@H](Cc2ccccc2)C(=O)N[C@@H](CC(C)C)C(=O)N[C@@H](C)C(N)=O)NC(=O)[C@@H]2CCCN2C(=O)[C@H](CCCCN)NC1=O [a-3-2] (LKP[Phe(3-(4R-CO-2-thiazolinyl))]ALFLA-NH2; lactam N-4) | ++ (0.2<Pe (10^−6 cm/s)≤0.5)
2 | N=C(N)NCCC[C@@H]1NC(=O)[C@H](Cc2c[nH]c3ccccc23)NC(=O)[C@@H](CC2CCCCC2)NC(=O)[C@@H]2CCCN2C(=O)[C@@H]2CSC(=N2)c2ccc(cn2)C[C@@H](C(N)=O)NC1=O [3-1] | +++ (0.5<Pe (10^−6 cm/s))
3 | CCCC[C@@H]1NC(=O)[C@H](CCCCN)NC(=O)C(CC(C)C)NC(=O)[C@H](CC(C)C)NC(=O)[C@@H]2CSC(=N2)c2cc(cs2)C[C@@H](C(N)=O)NC(=O)C(Cc2ccccc2)NC(=O)[C@H](C)NC(=O)[C@H](C)NC(=O)[C@@H]2CCCN2C1=O (stereo partly shown) [4-8] | ++ (0.2<Pe (10^−6 cm/s)≤0.5)
4 | N=C(N)NCCC[C@@H]1NC(=O)[C@H](Cc2c[nH]c3ccccc23)NC(=O)[C@@H](CC2CCCCC2)NC(=O)[C@@H]2CCCN2C(=O)[C@@H]2CSC(=N2)c2ccc(cc2)[C@@H](C(N)=O)NC1=O [a-1-19] | +++ (0.5<Pe (10^−6 cm/s))
5 | CC(C)C[C@@H]1NC(=O)[C@@H](C(C)C)NC(=O)[C@@H]2CSC(=N2)c2cc(cs2)C[C@@H](C(N)=O)NC(=O)[C@@H](CCC(=O)O)NC(=O)[C@@H](Cc2c[nH]c3ccccc23)NC1=O [4-4] | ++ (0.2<Pe (10^−6 cm/s)≤0.5)
6 | C[C@@H](O)[C@@H]1NC(=O)[C@H](CCCCN)NC(=O)[C@@H](Cc2c[nH]c3ccccc23)NC(=O)[C@H](Cc2ccccc2)NC(=O)[C@@H]2CSC(=N2)c2cc(cs2)C[C@@H](C(N)=O)NC1=O [4-6] | + (0.01<Pe (10^−6 cm/s)≤0.2)
7 | NC(=O)[C@@H]1Cc2csc(c2)C2=N[C@@H](CCS2)C(=O)N[C@H](Cc2ccc(O)cc2)C(=O)NCC(=O)NCC(=O)N[C@H](Cc2ccccc2)C(=O)N1 [4-2] | +++ (0.5<Pe (10^−6 cm/s))
8 | N=C(N)NCCC[C@@H]1NC(=O)[C@H](Cc2c[nH]c3ccccc23)NC(=O)[C@@H](CC2CCCCC2)NC(=O)[C@@H]2CCCN2C(=O)[C@@H]2CSC(=N2)C[C@@H](C(N)=O)NC1=O [3-5] | ++ (0.2<Pe (10^−6 cm/s)≤0.5)
9 | C[C@@]12CSC(=N1)c1cc(cs1)C[C@@H](C(N)=O)NC(=O)[C@H](CCCNC(=N)N)NC(=O)[C@H](Cc1c[nH]c3ccccc13)NC(=O)[C@@H](CC1CCCCC1)NC(=O)C1CCCN1C2=O (stereo partly shown) [a-1-1] | +++ (0.5<Pe (10^−6 cm/s))
10 | NC(=O)[C@@H]1Cc2csc(c2)C2=N[C@@H](CS2)C(=O)N[C@H](Cc2ccc(O)cc2)C(=O)NCC(=O)NCC(=O)N[C@H](Cc2ccccc2)C(=O)N1 [4-3] | +++ (0.5<Pe (10^−6 cm/s))
11 | Cn1nc2c3cc(ccc31)C[C@@H](C(N)=O)NC(=O)[C@H](CCCNC(=N)N)NC(=O)[C@H](Cc1c[nH]c3ccccc13)NC(=O)[C@@H](CC1CCCCC1)NC(=O)[C@@H]1CCCN1C(=O)[C@@H]1CSC2=N1 [a-1-3] | +++ (0.5<Pe (10^−6 cm/s))
12 | N=C(N)NCCC[C@@H]1NC(=O)[C@H](Cc2c[nH]c3ccccc23)NC(=O)[C@@H](CC2CCCCC2)NC(=O)[C@@H]2CCCN2C(=O)[C@@H]2CSC(=N2)c2csc(n2)-c2csc(n2)C[C@@H](C(N)=O)NC1=O [a-1-11] | +++ (0.5<Pe (10^−6 cm/s))
13 | N=C(N)NCCC[C@@H]1NC(=O)[C@H](Cc2c[nH]c3ccccc23)NC(=O)[C@@H](CC2CCCCC2)NC(=O)[C@@H]2CCCN2C(=O)[C@@H]2CSC(=N2)c2cc(on2)C[C@@H](C(N)=O)NC1=O [a-1-6] | +++ (0.5<Pe (10^−6 cm/s))

Second part, the compound after the results:

Row | Pe(10^−6 cm/sec) | Structure (SMILES)
14 | + (0.01<Pe (10^−6 cm/s)≤0.2) | CC(=O)N[C@H]1CSSC[C@@H](C(N)=O)NC(=O)[C@@H](CCC(=O)O)NC(=O)[C@@H](Cc2c[nH]c3ccccc23)NC(=O)[C@H](CC(C)C)NC(=O)[C@@H](C(C)C)NC1=O [9-2] (Ac-C[dV]L[dW][dE]C-NH2; disulfide 1-6)
15 | − (0.01≤Pe (10^−6 cm/s)) | CC(C)C[C@@H]1NC(=O)[C@@H](C(C)C)NC(=O)[C@H](C)NC(=O)Cn2cc(nn2)C[C@@H](C(N)=O)NC(=O)[C@@H](CCC(=O)O)NC(=O)[C@@H](Cc2c[nH]c3ccccc23)NC1=O [10-3]
16 | Below the limit | CC(=O)N[C@H]1CSSC[C@@H](C(N)=O)NC(=O)[C@H]([C@@H](C)O)NC(=O)[C@H](CCCCN)NC(=O)[C@@H](Cc2c[nH]c3ccccc23)NC(=O)[C@H](Cc2ccccc2)NC1=O [9-3] (Ac-CF[dW]KTC-NH2; disulfide 1-6)
17 | + (0.01<Pe (10^−6 cm/s)≤0.2) | C[C@@H]1NC(=O)CC[C@@H](C(N)=O)NC(=O)[C@H](CCCNC(=N)N)NC(=O)[C@H](Cc2c[nH]c3ccccc23)NC(=O)[C@@H](CC2CCCCC2)NC(=O)[C@@H]2CCCN2C1=O [8-1] (AP[dCha]WRE-NH2; lactam N-6)
18 | Below the limit | CCCC[C@@H]1NC(=O)[C@H](CCCCN)NC(=O)[C@H](CC(C)C)NC(=O)[C@H](CC(C)C)NC(=O)[C@H](C)NC(=O)CSC[C@@H](C(N)=O)NC(=O)[C@H](Cc2ccccc2)NC(=O)[C@H](CO)NC(=O)[C@H](C)NC(=O)[C@@H]2CCCN2C1=O [7-6] ({CH2CO}-ALLK[Nle]PASFC-NH2; thioether N-10)
19 | − (0.01≤Pe (10^−6 cm/s)) | CC(C)C[C@@H]1NC(=O)[C@@H](C(C)C)NC(=O)[C@H](C)NC(=O)CC[C@@H](C(N)=O)NC(=O)[C@@H](CCC(=O)O)NC(=O)[C@@H](Cc2c[nH]c3ccccc23)NC1=O [8-3] (A[dV]L[dW][dE]E-NH2; lactam N-6)
20 | +++ (0.5<Pe (10^−6 cm/s)) | CC(C)C[C@@H]1NC(=O)[C@@H](C(C)C)NC(=O)[C@@H]2CSC(=N2)c2cccc(c2)C[C@@H](C(N)=O)NC(=O)[C@@H](CCC(=O)O)NC(=O)[C@@H](Cc2c[nH]c3ccccc23)NC1=O [5-1] ([dV]L[dW][dE][Phe(3-(4R-CO-2-thiazolinyl))]-NH2; lactam N-5)
21 | + (0.01<Pe (10^−6 cm/s)≤0.2) | C[C@@H]1NC(=O)Cn2cc(nn2)C[C@@H](C(N)=O)NC(=O)[C@H](CCCNC(=N)N)NC(=O)[C@H](Cc2c[nH]c3ccccc23)NC(=O)[C@@H](CC2CCCCC2)NC(=O)[C@@H]2CCCN2C1=O [10-1]

Same assay, conditions: Measurement method B (10 μmol/L), 25° C., 4 hours

Row | Pe(10^−6 cm/sec) | Structure (SMILES)
22 | +++ (0.5<Pe (10^−6 cm/s)) | CC(C)C[C@@H]1NC(=O)[C@@H]2CSC(=N2)c2cccc(c2)C[C@@H](C(N)=O)NC(=O)[C@H](CC(C)C)NC(=O)[C@H](C)NC(=O)[C@H](Cc2ccccc2)NC(=O)[C@H](C)NC(=O)[C@@H]2CCCN2C(=O)[C@H](C)NC(=O)[C@H](CC(C)C)NC(=O)[C@H](CC(C)C)NC(=O)[C@@H]2CCCN2C(=O)[C@H](CC(C)C)NC(=O)[C@H](CCCNC(=N)N)NC(=O)[C@H](CC(C)C)NC1=O [a-3-1] (LLRLPLLAPAFAL[Phe(3-(4R-CO-2-thiazolinyl))]-NH2; lactam N-14)
23 | ++ (0.2<Pe (10^−6 cm/s)≤0.5) | N=C(N)NCCC[C@@H]1NC(=O)[C@H](Cc2c[nH]c3ccccc23)NC(=O)[C@@H](CC2CCCCC2)NC(=O)[C@@H]2CCCN2C(=O)[C@@H]2CSC(=N2)c2cn3cc(cnc3n2)-c2cccc(c2)C[C@@H](C(N)=O)NC1=O [a-1-16]
24 | ++ (0.2<Pe (10^−6 cm/s)≤0.5) | N=C(N)NCCC[C@@H]1NC(=O)[C@H](Cc2c[nH]c3ccccc23)NC(=O)[C@@H](CC2CCCCC2)NC(=O)[C@@H]2CCCN2C(=O)[C@@H]2CSC(=N2)c2cn3nc(ccc3n2)-c2cccc(c2)C[C@@H](C(N)=O)NC1=O [a-1-15]
25 | + (0.01<Pe (10^−6 cm/s)≤0.2) | CC(=O)N[C@H]1CCCCNC(=O)[C@@H]2CSC(=N2)c2cccc(c2)C[C@@H](C(N)=O)NC(=O)[C@H](C)NC(=O)C(CC(C)C)NC(=O)[C@H](CCCCN)NC(=O)[C@H](CC(C)C)NC(=O)[C@H](C)NC(=O)[C@H](CC(C)C)NC1=O (stereo partly drawn) [a-4-1] (Ac-KLALK[ξL]A[Phe(3-(4R-CO-2-thiazolinyl))]-NH2; lactam 1-8)
